Data as given in publication PMC8366681 (Cancer chemotherapy and pharmacology, 2013).

Biological target: ABCB1 (Homo sapiens, UniProt P08183)
Format: biochemical

Chain of ABCB1 (P08183 whole entry): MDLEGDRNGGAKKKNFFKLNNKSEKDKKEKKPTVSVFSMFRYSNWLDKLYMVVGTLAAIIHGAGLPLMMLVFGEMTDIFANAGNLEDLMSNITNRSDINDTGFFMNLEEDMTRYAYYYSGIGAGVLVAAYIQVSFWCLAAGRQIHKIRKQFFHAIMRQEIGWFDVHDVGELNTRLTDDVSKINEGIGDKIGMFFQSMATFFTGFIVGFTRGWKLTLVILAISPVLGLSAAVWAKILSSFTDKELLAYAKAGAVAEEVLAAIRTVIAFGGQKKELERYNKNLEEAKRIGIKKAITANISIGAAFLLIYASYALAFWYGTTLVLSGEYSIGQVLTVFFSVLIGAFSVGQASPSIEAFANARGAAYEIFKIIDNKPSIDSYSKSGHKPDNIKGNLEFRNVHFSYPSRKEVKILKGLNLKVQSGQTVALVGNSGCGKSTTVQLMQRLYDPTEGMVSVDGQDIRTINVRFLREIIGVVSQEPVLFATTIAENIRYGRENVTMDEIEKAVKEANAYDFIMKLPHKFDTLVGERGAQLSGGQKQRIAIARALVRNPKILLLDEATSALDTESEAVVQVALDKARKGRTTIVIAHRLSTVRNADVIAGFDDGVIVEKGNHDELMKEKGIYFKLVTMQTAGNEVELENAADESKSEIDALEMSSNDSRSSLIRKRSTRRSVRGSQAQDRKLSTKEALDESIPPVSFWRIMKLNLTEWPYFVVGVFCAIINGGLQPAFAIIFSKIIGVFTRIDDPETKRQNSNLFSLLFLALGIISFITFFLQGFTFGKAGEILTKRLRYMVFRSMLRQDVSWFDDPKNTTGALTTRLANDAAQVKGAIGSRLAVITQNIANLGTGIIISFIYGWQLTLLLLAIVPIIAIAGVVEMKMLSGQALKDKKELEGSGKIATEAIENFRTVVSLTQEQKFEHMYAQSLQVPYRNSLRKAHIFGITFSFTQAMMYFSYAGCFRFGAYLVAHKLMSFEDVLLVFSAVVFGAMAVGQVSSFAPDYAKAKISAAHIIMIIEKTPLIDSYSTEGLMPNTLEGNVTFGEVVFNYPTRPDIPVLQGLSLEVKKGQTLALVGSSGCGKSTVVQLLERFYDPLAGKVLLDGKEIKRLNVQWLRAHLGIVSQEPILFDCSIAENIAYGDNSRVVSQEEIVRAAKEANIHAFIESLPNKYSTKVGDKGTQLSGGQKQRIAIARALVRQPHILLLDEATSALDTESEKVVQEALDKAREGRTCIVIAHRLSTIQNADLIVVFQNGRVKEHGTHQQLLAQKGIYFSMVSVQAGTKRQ

Structure (SMILES): CCN(CC)CCCCNc1ncc2cc(-c3cc(OC)cc(OC)c3)c(NC(=O)NC(C)(C)C)nc2n1 [PD173074]
- vanadate-sensitive ATPase stimulation in crude membranes of High-five cells expr: 2.5 to 5 µM
